Test results as given in PMC10354740 (Journal of medicinal chemistry, 2022).
Values after ≈ are worked out from the molar mass of the structure shown. Where two headings read alike, the source gives them in different places. Each block holds one compound with its values, some of them ahead of it.

How the values were obtained:
hA3AR [1] = biological target: T1, hA3AR (Homo sapiens, UniProt P0DMS8); conditions: for enhancement of agonist efficacy at 0.1 μM: modulator 0.1 μM; for effect on agonist 52 potency: modulator 1 μM (30–34: 0.1 and 1.0 μM), compared to control
T1 sequence (P0DMS8 1-318): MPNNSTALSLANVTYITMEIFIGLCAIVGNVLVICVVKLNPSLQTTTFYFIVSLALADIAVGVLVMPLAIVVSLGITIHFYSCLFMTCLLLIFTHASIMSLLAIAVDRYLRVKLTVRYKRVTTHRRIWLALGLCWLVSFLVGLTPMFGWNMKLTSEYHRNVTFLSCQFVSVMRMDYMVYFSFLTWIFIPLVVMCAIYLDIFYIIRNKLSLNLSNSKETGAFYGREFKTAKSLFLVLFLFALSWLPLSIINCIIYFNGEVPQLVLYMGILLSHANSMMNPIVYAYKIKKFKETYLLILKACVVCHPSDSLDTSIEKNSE

hA3AR [2] = biological target: T1, hA3AR; conditions: modulator 0.1 μM; cited from earlier work
CYP2C9 = CYP2C9 (Homo sapiens, UniProt P11712); experiment: CYP inhibition
CYP2C9, sequence (P11712 whole entry): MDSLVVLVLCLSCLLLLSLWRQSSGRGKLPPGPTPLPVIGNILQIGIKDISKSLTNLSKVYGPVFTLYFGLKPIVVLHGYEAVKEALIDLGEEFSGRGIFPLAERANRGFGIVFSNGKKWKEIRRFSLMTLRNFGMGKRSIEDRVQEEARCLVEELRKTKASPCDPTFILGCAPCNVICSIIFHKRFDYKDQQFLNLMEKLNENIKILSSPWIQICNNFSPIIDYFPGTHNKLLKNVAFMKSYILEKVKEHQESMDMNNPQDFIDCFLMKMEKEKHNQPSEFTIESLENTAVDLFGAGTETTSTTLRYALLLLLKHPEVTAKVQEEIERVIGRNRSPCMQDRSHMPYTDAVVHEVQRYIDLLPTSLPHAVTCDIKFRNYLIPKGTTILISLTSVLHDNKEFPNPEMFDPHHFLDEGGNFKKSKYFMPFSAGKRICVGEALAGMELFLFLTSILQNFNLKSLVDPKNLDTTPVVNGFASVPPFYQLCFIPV

hA3AR [3] = biological target: T1, hA3AR; conditions: modulator 10 μM; 100 μM 51 added; control 26%
hA1 AR = biological target: T2, hA1 AR (Homo sapiens, UniProt P30542); experiment: Orthosteric antagonist radioligand binding; conditions: concentrations as high as 10 μM
T2 sequence (P30542 1-326): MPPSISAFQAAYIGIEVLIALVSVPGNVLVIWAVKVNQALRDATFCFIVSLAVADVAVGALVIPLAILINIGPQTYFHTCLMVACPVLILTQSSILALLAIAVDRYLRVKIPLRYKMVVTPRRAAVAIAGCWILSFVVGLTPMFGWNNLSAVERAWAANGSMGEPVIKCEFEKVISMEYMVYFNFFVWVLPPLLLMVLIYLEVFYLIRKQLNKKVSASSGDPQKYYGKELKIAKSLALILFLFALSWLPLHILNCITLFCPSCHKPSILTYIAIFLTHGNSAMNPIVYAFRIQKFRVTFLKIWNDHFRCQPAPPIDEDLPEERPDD

hA2A AR = hA2A AR (Homo sapiens, UniProt P29274); experiment: Orthosteric antagonist radioligand binding; conditions: concentrations as high as 10 μM
hA2A AR, sequence (P29274 whole entry): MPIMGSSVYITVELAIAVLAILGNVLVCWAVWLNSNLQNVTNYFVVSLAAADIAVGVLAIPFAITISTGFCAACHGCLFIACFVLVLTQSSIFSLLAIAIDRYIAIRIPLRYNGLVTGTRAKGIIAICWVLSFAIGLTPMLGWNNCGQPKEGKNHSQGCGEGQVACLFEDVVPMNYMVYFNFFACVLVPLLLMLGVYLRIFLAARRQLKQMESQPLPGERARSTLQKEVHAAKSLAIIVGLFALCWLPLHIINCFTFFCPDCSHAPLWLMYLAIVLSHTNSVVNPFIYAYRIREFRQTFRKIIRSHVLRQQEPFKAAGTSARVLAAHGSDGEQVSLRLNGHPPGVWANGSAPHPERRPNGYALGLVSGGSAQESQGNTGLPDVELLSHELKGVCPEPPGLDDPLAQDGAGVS

hA2B AR = biological target: T3, hA2B AR (Homo sapiens, UniProt P29275); experiment: Orthosteric antagonist radioligand binding; conditions: concentrations as high as 10 μM
T3 sequence (P29275 1-332): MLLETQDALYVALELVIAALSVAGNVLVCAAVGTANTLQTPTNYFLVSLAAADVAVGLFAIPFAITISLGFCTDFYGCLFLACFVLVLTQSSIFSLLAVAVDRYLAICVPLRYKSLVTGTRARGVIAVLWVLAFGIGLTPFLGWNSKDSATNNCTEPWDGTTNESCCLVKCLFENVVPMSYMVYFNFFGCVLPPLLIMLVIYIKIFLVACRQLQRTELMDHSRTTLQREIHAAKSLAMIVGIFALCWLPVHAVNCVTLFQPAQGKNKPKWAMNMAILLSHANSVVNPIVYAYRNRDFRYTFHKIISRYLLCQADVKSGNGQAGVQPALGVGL

[4] = Plasma protein binding, human; conditions: pH 7.4
[5] = pION aqueous solubility pH 7.4; format: physicochemical; conditions: pION buffer
[6] = Pharmacokinetics in fasted Wistar rats; format: in vivo; conditions: rat
Caco-2 cells = experiment: Caco-2 cell permeability assay; format: in vitro ADME, human

Structure (SMILES): FC(F)(F)[C@H]1CC[C@H](c2nc3c(Nc4ccc(Cl)c(Cl)c4)nc4ccccc4c3[nH]2)CC1 [Compound 16, 2-(4-(Trifluoromethyl)cyclohexyl)-N-(3,4-dichlorophenyl)-1H-imidazo[4,5-c]quinolin-4-amine]
enhancement of agonist efficacy at 0.1 μM (hA3AR [1]): significantly enhanced agonist efficacy | effect on agonist 52 potency (hA3AR [1]): did not influence agonist potency

Structure (SMILES): Clc1ccc(Nc2nc3ccccc3c3[nH]c(C4CCCCCC4)nc23)cc1Cl [Compound 8]
enhancement of agonist efficacy at 0.1 μM (hA3AR [2]): significantly enhanced agonist efficacy

Structure (SMILES): Clc1ccc(COC(Cn2ccnc2)c2ccc(Cl)cc2Cl)c(Cl)c1 (centres unmarked) [Miconazole]
IC50 (CYP2C9): 380 nM

Structure (SMILES): Clc1ccc(Nc2nc3ccccc3c3nc(C4CCCCC4)[nH]c23)cc1Cl [Compound 7, N-(3,4-dichloro-phenyl)-2-cyclohexyl-1H-imidazo[4,5-c]quinolin-4-amine]
enhancement of agonist efficacy at 0.1 μM (hA3AR [2]): significantly enhanced agonist efficacy

enhancement of agonist efficacy at 0.1 μM (hA3AR [1]): significantly enhanced agonist efficacy
Structure (SMILES): Clc1ccc(Nc2nc3ccccc3c3[nH]c([C@@H]4C[C@@H]5CCC[C@@H](C5)C4)nc23)cc1Cl [Compound 27, 2-((1R,3s,5S)-Bicyclo[3.3.1]nonan-3-yl)-N-(3,4-dichlorophenyl)-1H-imidazo[4,5-c]quinolin-4-amine]

Structure (SMILES): Clc1ccc(Nc2nc3ccccc3c3[nH]c([C@@H]4CC[C@@H]5C[C@@H]5CC4)nc23)cc1Cl [Compound 28, 2-((1R,4r,7S)-bicyclo[5.1.0]octan-4-yl)-N-(3,4-dichlorophenyl)-1H-imidazo[4,5-c]quinolin-4-amine]
fold increase of agonist efficacy (hA3AR [1]; modulator 1 μM): approximately 2 fold | radioligand [125I]50 remaining bound 60 min after initiation of dissociation (hA3AR [3]): slowed agonist radioligand dissociation

Structure (SMILES): Clc1ccc(Nc2nc3ccccc3c3[nH]c(C4CC4)nc23)cc1Cl [Compound 17, 2-(Cyclopropyl)-N-(3,4-dichlorophenyl)-1H-imidazo[4,5-c]quinolin-4-amine]
inhibition of orthosteric antagonist binding at hA1 AR (hA1 AR): did not inhibit orthosteric antagonist binding | inhibition of orthosteric antagonist binding at hA2A AR (hA2A AR): did not inhibit orthosteric antagonist binding | inhibition of orthosteric antagonist binding at hA2B AR (hA2B AR): did not inhibit orthosteric antagonist binding

Structure (SMILES): Clc1ccc(Nc2nc3ccccc3c3[nH]c(C45CCCC(CCC4)C5)nc23)cc1Cl [Compound 26, 2-(Bicyclo[3.3.1]nonan-1-yl)-N-(3,4-dichlorophenyl)-1H-imidazo[4,5-c]quinolin-4-amine]
effect on agonist 52 potency (hA3AR [1]): neither 12b nor 26 significantly improved agonist potency

Structure (SMILES): Clc1ccc(Nc2nc3ccccc3c3[nH]c(C45CCC(CC4)C5)nc23)cc1Cl [Compound 25, 2-(Bicyclo[2.2.1]heptan-1-yl)-N-(3,4-dichlorophenyl)-1H-imidazo[4,5-c]quinolin-4-amine]
fold decrease in agonist potency compared to control (hA3AR [1]; modulator 1 μM, P = 0.0257): 4 fold

Structure (SMILES): Clc1ccc(Nc2nc3ccccc3c3[nH]c(C45CC6CC(CC(C6)C4)C5)nc23)cc1Cl [Compound 12b]
enhancement of agonist efficacy at 0.1 μM (hA3AR [1]): significantly enhanced agonist efficacy | fold increase of agonist efficacy (hA3AR [1]; modulator 1 μM): approximately 2 fold | fold improvement of agonist potency (hA3AR [1]; modulator 1.0 μM, P = 0.058): ~4 fold

fraction unbound at 5 h, 10 μM [4]: 0.037
Structure (SMILES): CC(=O)CC(c1ccccc1)c1c(O)c2ccccc2oc1=O (centres unmarked) [Warfarin]

Structure (SMILES): FC(F)(F)CCC(CCC(F)(F)F)c1nc2c(Nc3ccc(Cl)c(Cl)c3)nc3ccccc3c2[nH]1 [Compound 15, 2-(1,1,1,7,7,7-Hexafluoroheptan-4-yl)-N-(3,4-dichlorophenyl)-1H-imidazo[4,5-c]quinolin-4-amine]
effect on agonist 52 potency (hA3AR [1]): did not influence agonist potency | radioligand [125I]50 remaining bound 60 min after initiation of dissociation (hA3AR [3]): did not slow agonist dissociation

solubility at 18 h [5]: 0.92 µM (≈ 0.389 µg/mL) | Cmax ([6]; male, Wistar (RccHan:WIST), plasma, po, 10 mg/kg): 4.2 µM | clearance rate from plasma ([6]; 1 mg/kg p.o.): 7.45 mL/min/kg | clearance rate from plasma ([6]; 3 mg/kg p.o.): 26.33 mL/min/kg | clearance rate from plasma ([6]; 10 mg/kg p.o.): 16.2 mL/min/kg | Caco-2 permeability (Papp) apical to basolateral (A to B) (Caco-2 cells; 10 μM): no measurable permeability | Caco-2 permeability (Papp) basolateral to apical (B to A) (Caco-2 cells; 10 μM): no measurable permeability | Caco-2 permeability classification (Caco-2 cells; A-B and B-A): low A-B and B-A permeability
Structure (SMILES): Clc1ccc(Nc2nc3ccccc3c3[nH]c(C4CCC=CCC4)nc23)cc1Cl [Compound 18, 2-(Cyclohept-4-en-1-yl)-N-(3,4-dichlorophenyl)-1H-imidazo[4,5-c]quinolin-4-amine]

Structure (SMILES): Clc1ccc(Nc2nc3ccccc3c3[nH]c(C4CC5C=CC4CC5)nc23)cc1Cl [Compound 29, 2-((1R,2R,4R)- and (1S,2S,4S))-Bicyclo[2.2.2]oct-5-en-2-yl)-N-(3,4-dichlorophenyl)-1H-imidazo[4,5-c]quinolin-4-amine]
effect on agonist EC50 over modulator concentrations (hA3AR [1]; concentration-dependent): significantly decreasing the potency in a concentration-dependent manner | effect on agonist 52 potency (hA3AR [1]): did not influence agonist potency
